Experimental data from patent US10494380B2, “Nitrogen-containing tricyclic derivatives having HIV replication inhibitory activity” (priority 2015, dated 2019).
Where two headings read alike, the source gives them in different places.

Legend:
Assay type in all cases: cell-based
HIV (HTLV-IIIB strain) = assay: HIV replication inhibition assay (Test Example 1; MT-4 cells, MTT)
Protocol: HIV (HTLV-IIIB strain) persistent infected human T cell strain Molt-4 clone8 was cultured in RPMI-1640 medium supplemented with 10% fetal bovine serum and the supernatant was filtered, then the virus titer was measured and stored at −80° C. Each anti-human immunodeficiency virus active substance was diluted with the above culture medium to the designated concentration, which was dispensed into 96-well microtiter plate by 50 μL. Next, 100 μL of MT-4 cell suspension (2.5×10^4 cells) was dispensed into each well, then 50 μl of the above HIV-containing supernatant diluted with the above culture medium was added thereto (60 pfu (plaque forming unit)).
Cell mixture was cultured at 37° C. in CO2 incubator for four days, then 30 μL of MTT (3-(4,5-dimethylthiazole-2-yl)-2,5-diphenyltetrazolyum bromide) reagent (5 mg/mL in PBS) was added to all wells followed by incubation for 1 hour. In this step, MTT was reduced to insoluble formazan in living cells. To elute generated formazan 150 μL of the culture supernatant was removed from all wells, then 150 μL of cell lysis solution (10% Triton X-100 and 0.4% (v/v)-HCl containing isopropanol) was added thereto, followed by shaking with a plate mixer. The formazan was measured with micro plate reader at OD: 560 nm and 690 nm (reference wavelength) and the result was compared with the reference wells. EC50 and EC90 mean the compound concentration at which cytotoxicity caused by virus infection is inhibited 50% and 90%, respectively.

[1] = test system: T125A mutant virus (HIV-1 NL-432 recombinant molecular clone, IN gene); assay: HIV replication inhibition assay against integrase 124/125 mutant virus (Test Example 2)
Procedure, shortened: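 MT-4 cells (2.5×10^4 per well) infected with 60 pfu of 293T-derived HIV-1 NL-432 clone carrying integrase 124/125 point mutations, in presence of compound, cultured 4 days at 37 °C. Viability by MTT formazan at 560/690 nm; EC50 = concentration inhibiting 50% of virus-induced cytotoxicity.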

HIV = details: EC50 in the presence of human serum (25%) versus without human serum, MT-4 cells
Procedure, shortened: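 Compound is preincubated 1 h at room temperature with human serum, or with medium alone as the serum-free control. MT-4 cells infected with HIV (1 h, 37° C) are added and cultured 4 days. EC50 is determined with and without serum; their ratio gives the potency shift.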

[2] = Human immunodeficiency virus 1, MT4, 96 h, HIV (HTLV-IIIB strain), MT-4 cells, MTT, four days, read-out: EC50
[3] = Human immunodeficiency virus 1, MT4, 96 h, HIV (HTLV-IIIB strain), MT-4 cells, MTT, four days, read-out: EC90
[4] = Human immunodeficiency virus 1, MT4, read-out: EC50 against T125A mutant virus, T125A mutant virus (HIV-1 NL-432 IN gene), MT-4 cells, MTT
[5] = Human immunodeficiency virus 1, IIIB, MT4, 96 h
[6] = Human immunodeficiency virus 1, MT4, 96 h, MT-4 cells, HIV HTLV-IIIB strain, cultured four days, MTT, read-out: EC50
[7] = HIV (HTLV-IIIB strain), MT-4 cells, MTT, four days, read-out: EC50
[8] = HIV (HTLV-IIIB strain), MT-4 cells, MTT, four days, read-out: EC90
[9] = T125A mutant virus (HIV-1 NL-432 IN gene), MT-4 cells, MTT, read-out: EC50 against T125A mutant virus

Row | Compound | EC50 (HIV (HTLV-IIIB strain); [2]) | EC90 (HIV (HTLV-IIIB strain); [3]) | EC50 [1, 4] | Potency shift value (HIV) | EC50 (HIV (HTLV-IIIB strain); [5]) | EC90 (HIV (HTLV-IIIB strain); [5]) | EC50 (HIV (HTLV-IIIB strain); [6]) | EC50 (HIV (HTLV-IIIB strain); [7]) | EC90 (HIV (HTLV-IIIB strain); [8]) | EC50 [1, 9]
1 | Cc1ccc(-c2c([C@H](OC(C)(C)C)C(=O)O)c(C)c3c4c2cc(C)n4CCN3C)c(O)c1 (mixture of isomers) [Compound I-245] | 27 nM | 42 nM | 63 nM | 12 | – | – | – | – | – | –
2 | Cc1ccc(-c2c([C@H](OC(C)(C)C)C(=O)O)c(C)c3c4c2cc(C(F)(F)F)n4CCN3C)cc1 [Compound I-007] | 2 nM | 3.6 nM | 18 nM | 49 | – | – | – | – | – | –
3 | CCN1CCn2c(C)cc3c(-c4ccc(C)cc4)c([C@H](OC(C)(C)C)C(=O)O)c(C)c1c32 [Compound I-009] | 0.98 nM | 1.6 nM | 14 nM | 38 | – | – | – | – | – | –
4 | COCc1cc2c(-c3ccc(C)cc3)c([C@H](OC(C)(C)C)C(=O)O)c(C)c3c2n1CCN3C [Compound I-011] | 16 nM | 24 nM | – | 21 | – | – | – | – | – | –
5 | CCCc1cc2c(-c3ccc(C)cc3)c([C@H](OC(C)(C)C)C(=O)O)c(C)c3c2n1CCN3C [Compound I-013] | 9.7 nM | 15 nM | – | 49 | – | – | – | – | – | –
6 | CC(=O)N1CCn2c(C)cc3c(-c4ccc(C)cc4)c([C@H](OC(C)(C)C)C(=O)O)c(C)c1c32 [Compound I-014] | 1.6 nM | 2.2 nM | 15 nM | 8.7 | – | – | – | – | – | –
7 | Cc1ccc(-c2c([C@H](OC(C)(C)C)C(=O)O)c(C)c3c4c2cc(C)n4CCN3)cc1 [Compound I-015] | 27 nM | 40 nM | – | 11 | – | – | – | – | – | –
8 | Cc1c([C@H](OC(C)(C)C)C(=O)O)c(-c2ccc(Cl)cc2)c2cc(C)n3c2c1NC(=O)C3 [Compound I-016] | 8.7 nM | 13 nM | 42 nM | 8.6 | – | – | – | – | – | –
9 | Cc1c([C@H](OC(C)(C)C)C(=O)O)c(-c2ccc(Cl)cc2)c2cc(C)n3c2c1N(C(=O)CN(C)C)CC3 [Compound I-017] | 20 nM | 31 nM | 94 nM | 4.5 | – | – | – | – | – | –
10 | CNCC(=O)N1CCn2c(C)cc3c(-c4ccc(Cl)cc4)c([C@H](OC(C)(C)C)C(=O)O)c(C)c1c32 [Compound I-018] | 83 nM | 100 nM | – | 6.8 | – | – | – | – | – | –
11 | Cc1ccc(-c2c([C@H](OC(C)(C)C)C(=O)O)c(C)c3c4c2cc(C)n4CC(=O)N3C)cc1 [Compound I-020] | 9.5 nM | 12 nM | – | 41 | – | – | – | – | – | –
12 | Cc1ccc(-c2c([C@H](OC(C)(C)C)C(=O)O)c(C)c3c4c2cc(C)n4CCN3CCO)cc1 [Compound I-021] | 5.2 nM | 7.5 nM | 22 nM | 5.4 | – | – | – | – | – | –
13 | Cc1ccc(-c2c([C@H](OC(C)(C)C)C(=O)O)c(C)c3c4c2cc(CO)n4CCN3C)cc1 [Compound I-022] | 17 nM | 25 nM | – | 4.5 | – | – | – | – | – | –
14 | CCS(=O)(=O)N1CCn2c(C)cc3c(-c4ccc(Cl)cc4)c([C@H](OC(C)(C)C)C(=O)O)c(C)c1c32 [Compound I-023] | 1 nM | 2.6 nM | 5.5 nM | 12 | – | – | – | – | – | –
15 | Cc1ccc(-c2c([C@H](OC(C)(C)C)C(=O)O)c(C)c3c4c2cc(C(F)F)n4CCN3C)cc1 [Compound I-024] | 1.6 nM | 2.1 nM | 7.7 nM | 22 | – | – | – | – | – | –
16 | CC(=O)N1CCn2c(C)cc3c(-c4ccc(Cl)cc4)c([C@H](OC(C)(C)C)C(=O)O)c(C)c1c32 [Compound I-025] | 2.3 nM | 3.1 nM | 13 nM | 11 | – | – | – | – | – | –
17 | Cc1ccc(-c2c([C@H](OC(C)(C)C)C(=O)O)c(C)c3c4c2cc(C)n4CCN3CCNC2CC2)cc1 [Compound I-028] | 74 nM | 93 nM | – | 2.5 | – | – | – | – | – | –

Row | Compound | EC50 (HIV (HTLV-IIIB strain); [2]) | EC90 (HIV (HTLV-IIIB strain); [3]) | EC50 [1, 4] | Potency shift value (HIV) | EC50 (HIV (HTLV-IIIB strain); [5]) | EC90 (HIV (HTLV-IIIB strain); [5]) | EC50 (HIV (HTLV-IIIB strain); [6]) | EC50 (HIV (HTLV-IIIB strain); [7]) | EC90 (HIV (HTLV-IIIB strain); [8]) | EC50 [1, 9]
18 | Cc1c([C@H](OC(C)(C)C)C(=O)O)c(-c2ccc(Cl)cc2)c2cc(C)n3c2c1N(S(=O)(=O)CC[Si](C)(C)C)CC3 [Compound I-029] | – | – | 89 nM | 28 | 8.6 nM | 12 nM | – | – | – | –
19 | Cc1c([C@H](OC(C)(C)C)C(=O)O)c(-c2ccc(Cl)cc2)c2cc(C)n3c2c1N1C(=O)OCC[C@@H]1C3 [Compound I-167] | – | 18 nM | 49 nM | 4.1 | – | – | 7.6 nM | – | – | –
20 | Cc1ccc(-c2c([C@H](OC(C)(C)C)C(=O)O)c(C)c3c4c2cc(C)n4CCN3CCN2CCCO2)cc1 [Compound I-170] | – | 5.2 nM | 18 nM | 3.5 | – | – | 3.1 nM | – | – | –
21 | Cc1c([C@H](OC(C)(C)C)C(=O)O)c(-c2ccc(F)cc2)c2cc(C)n3c2c1N(CCN(C)C)CC3 [Compound I-171] | – | 24 nM | 62 nM | 1.4 | – | – | 15 nM | – | – | –
22 | Cc1ccc(-c2c([C@H](OC(C)(C)C)C(=O)O)c(C)c3c4c2cc(C)n4CCN3CCN2C3CCC2COC3)cc1 [Compound I-172] | – | 5.4 nM | 16 nM | 2.3 | – | – | 3.5 nM | – | – | –
23 | Cc1ccc(-c2c([C@H](OC(C)(C)C)C(=O)O)c(C)c3c4c2cc(C)n4CCN3c2ncc(N3CCN(C)CC3)cn2)cc1 [Compound I-204] | – | – | – | 3.6 | – | – | – | 4.1 nM | 5.8 nM | 9.5 nM
24 | COc1cnc(N2CCn3c(C)cc4c(-c5ccc(C)cc5O)c([C@H](OC(C)(C)C)C(=O)O)c(C)c2c43)nc1 [Compound I-205] | – | – | – | 32 | – | – | – | 16 nM | 35 nM | 63 nM
25 | Cc1ccc(-c2c([C@H](OC(C)(C)C)C(=O)O)c(C)c3c4c2cc(C)n4CCN3c2ncc(C3CCN(C)CC3)cn2)cc1 [Compound I-213] | – | – | – | 3.9 | – | – | – | 12 nM | 19 nM | 31 nM
26 | COc1cnc(N2CCn3c(C)cc4c(-c5ccc(C)cc5)c([C@H](OC(C)(C)C)C(=O)O)c(Cl)c2c43)nc1 [Compound I-226] | – | – | – | 26 | – | – | – | 1.2 nM | 1.6 nM | 3.6 nM
27 | Cc1ccc(-c2c([C@H](OC(C)(C)C)C(=O)O)c(C)c3c4c2cc(C)n4CCN3c2noc(C)n2)cc1 [Compound I-227] | 1 nM | 1.4 nM | 4.1 nM | 15 | – | – | – | – | – | –
28 | COc1cnc(N2CCn3c(C)cc4c(-c5c(F)cc(C)cc5F)c([C@H](OC(C)(C)C)C(=O)O)c(C)c2c43)nc1 [Compound I-230] | 1.8 nM | 3.3 nM | 6.7 nM | 24 | – | – | – | – | – | –
29 | Cc1ccc(-c2c([C@H](OC(C)(C)C)C(=O)O)c(C)c3c4c2cc(C)n4CCN3c2ncc(C)cn2)cc1 [Compound I-235] | 1.6 nM | – | 2.8 nM | 46 | – | – | – | – | – | –
30 | Cc1c([C@H](OC(C)(C)C)C(=O)O)c(-c2ccc(Cl)cc2)c2cc(C)n3c2c1N(c1ncc(N2CCOCC2)cn1)CC3 [Compound I-246] | 2.3 nM | 2.5 nM | 4.5 nM | 23 | – | – | – | – | – | –
31 | Cc1c([C@H](OC(C)(C)C)C(=O)O)c(-c2ccc(Cl)cc2)c2cc(C)n3c2c1N(c1ncc(OCCO)cn1)CC3 [Compound I-254] | 7.9 nM | 13 nM | 17 nM | 10 | – | – | – | – | – | –
32 | COCCCOc1cnc(N2CCn3c(C)cc4c(-c5ccc(Cl)cc5)c([C@H](OC(C)(C)C)C(=O)O)c(C)c2c43)nc1 [Compound I-255] | 1.6 nM | 2.4 nM | 5.1 nM | 22 | – | – | – | – | – | –
33 | Cc1ccc(-c2c([C@H](OC(C)(C)C)C(=O)O)c(Cl)c3c4c2cc(C)n4CCN3CCN(C)C)cc1 [Compound I-265] | 13 nM | 30 nM | 44 nM | 2.5 | – | – | – | – | – | –
34 | [2H]C([2H])([2H])Oc1cnc(N2CCn3c(C)cc4c(-c5ccc(C)cc5)c([C@H](OC(C)(C)C)C(=O)O)c(C)c2c43)nc1 [Compound I-266] | 1.3 nM | 2.1 nM | 3.7 nM | 23 | – | – | – | – | – | –
